Measurements taken from patent publication US8394814B2, “Method of purifying crude noscapine” (priority 2008, dated 2013).
Like-named read-outs stand apart in the source and are kept apart here.

Columns and labels:
[1] = format: physicochemical; settings: for Solubility: neutral pH
Procedure: To determine the solubility of noscapine in a variety of different solvents at neutral pH, the following experiment was conducted. Noscapine solubility was determined at ambient temperature (22° C.-23° C.) and at 50° C. by dissolving noscapine and noting the amount dissolved prior to saturation for the following solvents: acetone, acetonitrile, ethanol, isopropanol, methanol, pentanol, toluene, and water.

[2] = format: physicochemical
Procedure: To characterize the solubility of noscapine in acetonitrile/water systems, the following experiment was conducted. […] The results of the solubility measurements are summarized in Table 3 and are summarized in a graph in FIG. 8.

[3] = format: physicochemical; settings: for Solubility: room temperature; for Reduction of the solubility of noscapine by adding an equal amount of water: Table 1 compared with Table 2
Procedure: Noscapine solubility was also determined at room temperature for the following solvent mixtures, mixed in a roughly 1:1 ratio by weight: acetone:water, acetonitrile:water, chloroform:ethanol, toluene:ethanol. Solubilities were determined using methods similar to those described above, and the measured solubilities are summarized in Table 2.

Q: With `COc1ccc2c(c1OC)C(=O)O[C@@H]2[C@H]1c2c(cc3c(c2OC)OCO3)CCN1C` [noscapine] as the molecule, how does the Solubility ([1]; Acetone, 23° C.) read?
A: 68.56 mg of noscapine/g of solvent

Q: What about the Solubility ([1]; Acetone, 50° C.) of the same molecule?
A: 145.98 mg of noscapine/g of solvent

Q: What about the Solubility ([1]; Acetonitrile, 23° C.) of the same molecule?
A: 52.33 mg of noscapine/g of solvent

Q: What about the Solubility ([1]; Acetonitrile, 50° C.) of the same molecule?
A: 151.21 mg of noscapine/g of solvent

Q: And the Solubility ([1]; Chloroform, 23° C.)?
A: 504.11 mg of noscapine/g of solvent

Q: What about the Solubility ([1]; Ethanol, 50° C.) of the same molecule?
A: 5.90 mg of noscapine/g of solvent

Q: What about the Solubility ([1]; Isopropanol, 50° C.) of the same molecule?
A: 12.99 mg of noscapine/g of solvent

Q: And the Solubility ([1]; Methanol, 50° C.)?
A: 1.81 mg of noscapine/g of solvent

Q: And the Solubility ([1]; Pentanol, 50° C.)?
A: 12.29 mg of noscapine/g of solvent

Q: And the Solubility ([1]; Toluene, 23° C.)?
A: 40.65 mg of noscapine/g of solvent

Q: What about the Solubility ([1]; Toluene, 50° C.) of the same molecule?
A: 59.99 mg of noscapine/g of solvent

Q: And the Solubility ([1]; Water, 50° C.)?
A: 0.82 mg of noscapine/g of solvent

Q: And the Solubility in words ([1]; chloroform)?
A: highly soluble

Q: What about the Solubility in words ([1]; water) of the same molecule?
A: nearly insoluble

Q: What about the Solubility ([2]; 0% acetonitrile by weight in water, 50° C.) of the same molecule?
A: 0.2 mg noscapine per gram of solve

Q: And the Solubility ([2]; 0% acetonitrile by weight in water, 70° C.)?
A: 0.2 mg noscapine per gram of solve

Q: And the Solubility ([2]; 20% acetonitrile by weight in water, 50° C.)?
A: 0.8 mg noscapine per gram of solve

Q: And the Solubility ([2]; 20% acetonitrile by weight in water, 70° C.)?
A: 1.4 mg noscapine per gram of solve

Q: What about the Solubility ([2]; 40% acetonitrile by weight in water, 50° C.) of the same molecule?
A: 8.1 mg noscapine per gram of solve

Q: And the Solubility ([2]; 40% acetonitrile by weight in water, 70° C.)?
A: 6.7 mg noscapine per gram of solve

Q: And the Solubility ([2]; 60% acetonitrile by weight in water, 50° C.)?
A: 32.6 mg noscapine per gram of solve

Q: And the Solubility ([2]; 60% acetonitrile by weight in water, 70° C.)?
A: 46.3 mg noscapine per gram of solve

Q: And the Solubility ([2]; 80% acetonitrile by weight in water, 50° C.)?
A: 82.8 mg noscapine per gram of solve

Q: What about the Solubility ([2]; 80% acetonitrile by weight in water, 70° C.) of the same molecule?
A: 181.9 mg noscapine per gram of solve

Q: And the Solubility ([2]; 100% acetonitrile by weight, 50° C.)?
A: 131.0 mg noscapine per gram of solve

Q: What about the Solubility ([2]; 100% acetonitrile by weight, 70° C.) of the same molecule?
A: 226.5 mg noscapine per gram of solve

Q: What about the “Change of solubility in acetonitrile with temperature” value ([2]; acetonitrile, temperature increased from 22° C. to 50° C.) of the same molecule?
A: more than doubles

Q: And the “Increase of solubility in the acetonitrile/water mixture” value ([2]; between 0° C. and 70° C., acetonitrile concentrations of about 50% or above)?
A: up to 10 fold

Q: What about the “Ratio of the solubility in pure acetonitrile to the solubility in pure water” value ([2]; solvent temperature 0° C.) of the same molecule?
A: about 78

Q: What about the “Ratio of the solubility in pure acetonitrile to the solubility in pure water” value ([2]; solvent temperature 70° C.) of the same molecule?
A: about 647

Q: What about the Solubility ([3]; Acetone 49.4% / Water 50.6% by weight) of the same molecule?
A: 3.21 mg noscapine/g of solvent

Q: What about the Solubility ([3]; Acetonitrile 48.6% / Water 51.4% by weight) of the same molecule?
A: 1.06 mg noscapine/g of solvent

Q: And the Solubility ([3]; Chloroform 50.0% / Ethanol 50.0% by weight)?
A: 73.34 mg noscapine/g of solvent

Q: What about the Solubility ([3]; Toluene 51.0% / Ethanol 49.0% by weight) of the same molecule?
A: 37.21 mg noscapine/g of solvent

Q: What about the “Reduction of the solubility of noscapine by adding an equal amount of water” value ([3]; second solvent of 'acetone and water' as printed) of the same molecule?
A: about 98%

Q: And the “Reduction of the solubility of noscapine by adding an equal amount of water” value ([3]; solvent acetone)?
A: about 95%
